In ChEMBL document CHEMBL1201862, “PubChem BioAssay data set” (2004):
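A five-concentration, 48-hour dose response in 96-well plates underlies each endpoint, interpolated linearly between surrounding concentrations. GI50: concentration for 50% inhibition of growth.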 Activity calls are given as the source filed them. Cut-off read from the data, not from the text of the source: active = GI50 up to about 1.1 µM and inactive = higher.

How the values were obtained:
Experiment in all cases: NCI-60 cell line screen, 48 h
LXFL 529 = tested on: LXFL 529
DMS-273 = tested on: DMS-273
SNB-78 = tested on: SNB-78
M19-MEL = tested on: M19-MEL
XF498 = tested on: XF498
KM-20L2 = tested on: KM-20L2
DLD-1 = tested on: DLD-1
HOP-18 = tested on: HOP-18
RXF 631 = tested on: RXF 631

Row | Structure (SMILES) | GI50 (LXFL 529) | GI50 (DMS-273) | GI50 (SNB-78) | GI50 (M19-MEL) | GI50 (XF498) | GI50 (KM-20L2) | GI50 (DLD-1) | GI50 (HOP-18) | GI50 (RXF 631)
1 | CC1(C)OC(=O)C(=Cc2ccc(O)cc2)C(=O)O1 | > 100 µM (inactive) | > 100 µM (inactive) | > 100 µM (inactive) | > 100 µM (inactive) | > 100 µM (inactive) | > 100 µM (inactive) |  |  | 
2 | CCCCCN(CCCCC)C(=O)[C@H](CCC(=O)O)NC(=O)c1cc2ccccc2[nH]1 | 56.6 µM (inactive) | 49.2 µM (inactive) | 95.1 µM (inactive) | 45.5 µM (inactive) | 44.9 µM (inactive) | 55.3 µM (inactive) | 38.3 µM (inactive) |  | 
3 | C1COCCSC2=C(SCCO1)SC(=C1SC3=C(SCCOCCOCCS3)S1)S2 | > 100 µM (inactive) | > 100 µM (inactive) | 38 µM (inactive) |  | 28.6 µM (inactive) | > 100 µM (inactive) | > 100 µM (inactive) | > 100 µM (inactive) | 
4 | O=C(O)\C=C/C=C/C=C/C=C/C(=O)O | > 100 µM (inactive) | > 100 µM (inactive) | > 100 µM (inactive) |  |  | > 100 µM (inactive) | > 100 µM (inactive) | > 100 µM (inactive) | 
5 | CC1=C(C(=O)Nc2ccc(Cl)c(Cl)c2)C(c2ccco2)C(C(=O)Nc2ccc(Cl)c(Cl)c2)=C(C)N1 | 11.9 µM (inactive) | 16 µM (inactive) | 17.3 µM (inactive) | 11.8 µM (inactive) | 1.11 µM (active) |  | 10.3 µM (inactive) | 12.5 µM (inactive) | 12.9 µM (inactive)
6 | COc1cc2c(c(C)c1O)[C@H]1COc3ccccc3[C@H]1O2 | 14.6 µM (inactive) | 5.81 µM (inactive) | 23.4 µM (inactive) | 12.5 µM (inactive) |  | 18.2 µM (inactive) | 24.4 µM (inactive) | 1.37 µM (inactive) | 11.6 µM (inactive)
7 | CC(=O)N(C(C)=O)C1=C2c3ccccc3N(S(=O)(=O)c3ccccc3)C2n2c(=O)n(-c3ccccc3)c(=O)n2C1 (centres undefined) | 39.7 µM (inactive) | 44.2 µM (inactive) |  | 27.1 µM (inactive) |  | 34.2 µM (inactive) | 32.6 µM (inactive) | 22 µM (inactive) | 
8 | Nc1cc2c(C3OC(CO)C(O)C3O)n[nH]c2c(=S)[nH]1 (centres undefined) | > 100 µM (inactive) | > 100 µM (inactive) | > 100 µM (inactive) | > 100 µM (inactive) | > 100 µM (inactive) | > 100 µM (inactive) | > 100 µM (inactive) |  | > 100 µM (inactive)
9 | O=c1nc2sc3ccc4ccccc4c3n2nc1O | 68.1 µM (inactive) | 39.8 µM (inactive) | 70.3 µM (inactive) |  |  | 25.3 µM (inactive) | 40.9 µM (inactive) | 71.3 µM (inactive) | 
10 | O=C1/C(=C/c2ccccc2Cl)COc2ccc(Br)cc21 | 63 µM (inactive) | 32.3 µM (inactive) | 43.1 µM (inactive) | > 100 µM (inactive) | 27.2 µM (inactive) | > 100 µM (inactive) | 65.9 µM (inactive) | 54.1 µM (inactive) | 
11 | Cc1ccc(C)c(N2C(=O)C(=O)C(c3nc4ccccc4s3)/C(=N/NC(=O)NN)C2=O)c1 (centres undefined) | > 100 µM (inactive) | > 100 µM (inactive) | > 100 µM (inactive) | > 100 µM (inactive) | > 100 µM (inactive) | > 100 µM (inactive) | > 100 µM (inactive) | > 100 µM (inactive) | > 100 µM (inactive)
12 | N#Cc1sc2nc3c(c(-c4ccccc4)c2c1N)CCCC3 | > 100 µM (inactive) | 57.9 µM (inactive) | 56 µM (inactive) | > 100 µM (inactive) | 37.9 µM (inactive) |  |  |  | 9.25 µM (inactive)
13 | c1ccc(COc2cccc3cccnc23)cc1 | 47.8 µM (inactive) |  |  | 67.3 µM (inactive) | 70.8 µM (inactive) | > 100 µM (inactive) | > 100 µM (inactive) | 21.6 µM (inactive) | > 100 µM (inactive)
14 | CC(=O)OCC1OC(n2cc(I)c(=O)[nH]c2=O)C(OC(C)=O)C(OC(C)=O)C1OC(C)=O (centres undefined) | > 100 µM (inactive) | > 100 µM (inactive) |  | > 100 µM (inactive) | > 100 µM (inactive) | > 100 µM (inactive) | > 100 µM (inactive) | > 100 µM (inactive) | 
15 | COC1OC(C)C(OCc2ccccc2)C(OS(=O)(=O)c2ccc(C)cc2)C1OS(=O)(=O)c1ccc(C)cc1 (centres undefined) | > 100 µM (inactive) | > 100 µM (inactive) | > 100 µM (inactive) | > 100 µM (inactive) |  | > 100 µM (inactive) | > 100 µM (inactive) | > 100 µM (inactive) | 
16 | CC1=NN(C(=O)CC(=O)NC(=O)CC(=O)Nc2ccccc2F)C(=O)C1/N=N/c1ccc([N+](=O)[O-])cc1 (centres undefined) | 37.2 µM (inactive) | 39.1 µM (inactive) | > 100 µM (inactive) | 30.3 µM (inactive) | 28.3 µM (inactive) | 29.8 µM (inactive) | 42.3 µM (inactive) | 31.5 µM (inactive) | 30.2 µM (inactive)
17 | CCCc1nc(NC#N)nc(C(=O)Nc2ccccc2)c1CC | > 100 µM (inactive) | > 100 µM (inactive) | > 100 µM (inactive) | > 100 µM (inactive) | > 100 µM (inactive) | > 100 µM (inactive) | > 100 µM (inactive) | > 100 µM (inactive) | > 100 µM (inactive)
18 | CCCCOC(=O)NC(=O)c1cn(CCCOC(=O)NCCCCCCNC(=O)OCCCn2cc(C(=O)NC(=O)OCCCC)c(=O)[nH]c2=O)c(=O)[nH]c1=O | 90.4 µM (inactive) | > 100 µM (inactive) | > 100 µM (inactive) | > 100 µM (inactive) | 18.7 µM (inactive) | > 100 µM (inactive) | > 100 µM (inactive) | > 100 µM (inactive) | > 100 µM (inactive)
19 | N#CCC(=O)Nc1ccccc1O | > 100 µM (inactive) | > 100 µM (inactive) | > 100 µM (inactive) | > 100 µM (inactive) | > 100 µM (inactive) | > 100 µM (inactive) | > 100 µM (inactive) | > 100 µM (inactive) | > 100 µM (inactive)
20 | CCOc1ccc(/N=C/c2c3ccccc3nc3ccccc23)cc1 | 24.7 µM (inactive) | 32.4 µM (inactive) | > 100 µM (inactive) | > 100 µM (inactive) | 65.6 µM (inactive) | 40.2 µM (inactive) | 24.7 µM (inactive) | > 100 µM (inactive) | > 100 µM (inactive)
21 | O=[As]O | 16.2 µM (inactive) | 24.2 µM (inactive) | 12.6 µM (inactive) | 20.5 µM (inactive) | 17.5 µM (inactive) | 48.3 µM (inactive) | 17.8 µM (inactive) |  | 10.1 µM (inactive)
22 | CC12C=C[C@]3(CC[C@@H]4[C@@](C)(CO)CCC[C@]4(C)C3CC1)C2 (some centres undefined) | 16.9 µM (inactive) | 16.1 µM (inactive) | 18.6 µM (inactive) | 19.2 µM (inactive) | 19.6 µM (inactive) | 0.382 µM (active) | > 10 µM (inactive) |  | 
23 | CC(c1ccccc1)N1O[C@]12CC[C@@]1(C)C(CCCC13OCCO3)C2 (some centres undefined) |  | 19.2 µM (inactive) | 20.3 µM (inactive) | 23 µM (inactive) | 22.5 µM (inactive) | > 100 µM (inactive) | 17.1 µM (inactive) |  | 
24 | C#CCOCn1cnc2c(S)ncnc21 | > 100 µM (inactive) | > 100 µM (inactive) |  | > 100 µM (inactive) | > 100 µM (inactive) | > 100 µM (inactive) | > 100 µM (inactive) |  | > 100 µM (inactive)
25 | CCc1ccc(/C=C\c2cc(OC)c(OC)c(OC)c2)cc1 | 0.211 µM (active) | 0.305 µM (active) | 0.15 µM (active) | 0.163 µM (active) |  | 0.0342 µM (active) | 0.378 µM (active) | 0.48 µM (active) | 
26 | O=C(OC[C@H]1O[C@@H](OC(=O)c2cc(O)c(O)c(O)c2)[C@H](OC(=O)c2cc(O)c(O)c(O)c2)[C@@H](OC(=O)c2cc(O)c(O)c(O)c2)[C@@H]1OC(=O)c1cc(O)c(O)c(O)c1)c1cc(O)c(O)c(O)c1 [PENTAGALLOYL GLUCOSE] | 11.4 µM (inactive) | 1.46 µM (inactive) | 9.51 µM (inactive) | 9.14 µM (inactive) | 4.85 µM (inactive) | 4.27 µM (inactive) | 7 µM (inactive) | 36.6 µM (inactive) | 
